Key:
MDA-MB-231/ATCC = experiment: NCI cytotoxicity screen, Breast Cancer panel; format: cell-based; details: Homo sapiens, MDA-MB-231, read-out: Percent growth inhibition
Procedure: (§1) Cytotoxicity was performed at National Cancer Institute (NCI), Bethesda, USA as per their protocols.

BT-549 = experiment: NCI cytotoxicity screen, Breast Cancer panel; format: cell-based; details: Homo sapiens, single dose 10 µM, negative = lethal, read-out: Percent growth inhibition
Procedure: as §1

MDA-MB-468 = experiment: NCI cytotoxicity screen, Breast Cancer panel; format: cell-based; details: Homo sapiens, single dose 10 µM, negative = lethal, read-out: Percent growth inhibition
Procedure: as §1

UACC-257 = experiment: NCI cytotoxicity screen, Melanoma panel; format: cell-based; details: Homo sapiens, single dose 10 µM, negative = lethal, read-out: Percent growth inhibition
Procedure: as §1

SK-MEL-5 = experiment: NCI cytotoxicity screen, Melanoma panel; format: cell-based; details: Homo sapiens, single dose 10 µM, negative = lethal, read-out: Percent growth inhibition
Procedure: as §1

SK-MEL-2 = experiment: NCI cytotoxicity screen, Melanoma panel; format: cell-based; details: Homo sapiens, single dose 10 µM, negative = lethal, read-out: Percent growth inhibition
Procedure: as §1

MDA-MB-435 = experiment: NCI cytotoxicity screen, Melanoma panel; format: cell-based; details: Homo sapiens, MDA-MB-435, read-out: Percent growth inhibition
Procedure: as §1

MALME-3M = experiment: NCI cytotoxicity screen, Melanoma panel; format: cell-based; details: Homo sapiens; MALME-3M; single dose 10 µM; negative = lethal; read-out: Percent growth inhibition
Procedure: as §1

SK-MEL-28 = experiment: NCI cytotoxicity screen, Melanoma panel; format: cell-based; details: Homo sapiens, single dose 10 µM, negative = lethal, read-out: Percent growth inhibition
Procedure: as §1

SR = experiment: NCI cytotoxicity screen, Leukemia panel; format: cell-based; details: Homo sapiens, single dose 10 µM, negative = lethal, read-out: Percent growth inhibition
Procedure: as §1

HL-60(TB) = experiment: NCI cytotoxicity screen, Leukemia panel; format: cell-based; details: Homo sapiens, HL-60, HL-60(TB); single dose 10 µM; negative = lethal; read-out: Percent growth inhibition
Procedure: as §1

MOLT-4 = experiment: NCI cytotoxicity screen, Leukemia panel; format: cell-based; details: Homo sapiens, MOLT-4, MOLT-4; single dose 10 µM; negative = lethal; read-out: Percent growth inhibition
Procedure: as §1

RPMI-8226 = experiment: NCI cytotoxicity screen, Leukemia panel; format: cell-based; details: Homo sapiens; RPMI-8226; single dose 10 µM; negative = lethal; read-out: Percent growth inhibition
Procedure: as §1

K-562 = experiment: NCI cytotoxicity screen, Leukemia panel; format: cell-based; details: Homo sapiens, K562; K-562; single dose 10 µM; negative = lethal; read-out: Percent growth inhibition
Procedure: as §1

CCRF-CEM = experiment: NCI cytotoxicity screen, Leukemia panel; format: cell-based; details: Homo sapiens, single dose 10 µM, negative = lethal, read-out: Percent growth inhibition
Procedure: as §1

PC-3 = experiment: NCI cytotoxicity screen, Prostate Cancer panel; format: cell-based, human; details: Homo sapiens, single dose 10 µM, negative = lethal, read-out: Percent growth inhibition
Procedure: as §1

DU-145 = experiment: NCI cytotoxicity screen, Prostate Cancer panel; format: cell-based, human; details: Homo sapiens, single dose 10 µM, negative = lethal, read-out: Percent growth inhibition
Procedure: as §1

HCT-15 = experiment: NCI cytotoxicity screen, Colon Cancer panel; format: cell-based; details: Homo sapiens, single dose 10 µM, negative = lethal, read-out: Percent growth inhibition
Procedure: as §1

HT29 = experiment: NCI cytotoxicity screen, Colon Cancer panel; format: cell-based; details: Homo sapiens, HT-29; HT29; single dose 10 µM; negative = lethal; read-out: Percent growth inhibition
Procedure: as §1

COLO 205 = experiment: NCI cytotoxicity screen, Colon Cancer panel; format: cell-based; details: Homo sapiens, single dose 10 µM, negative = lethal, read-out: Percent growth inhibition
Procedure: as §1

HCT-116 = experiment: NCI cytotoxicity screen, Colon Cancer panel; format: cell-based; details: Homo sapiens, single dose 10 µM, negative = lethal, read-out: Percent growth inhibition
Procedure: as §1

SW-620 = experiment: NCI cytotoxicity screen, Colon Cancer panel; format: cell-based, human; details: Homo sapiens, single dose 10 µM, negative = lethal, read-out: Percent growth inhibition
Procedure: as §1

KM12 = experiment: NCI cytotoxicity screen, Colon Cancer panel; format: cell-based, human; details: Homo sapiens, single dose 10 µM, negative = lethal, read-out: Percent growth inhibition
Procedure: as §1

HCC-2998 = experiment: NCI cytotoxicity screen, Colon Cancer panel; format: cell-based, human; details: Homo sapiens; HCC-2998; single dose 10 µM; negative = lethal; read-out: Percent growth inhibition
Procedure: as §1

A549/ATCC = experiment: NCI cytotoxicity screen, Non-Small Cell Lung Cancer panel; format: cell-based; details: Homo sapiens; A549/ATCC; single dose 10 µM; negative = lethal; read-out: Percent growth inhibition
Procedure: as §1

EXVX = experiment: as above; format: cell-based; details: Homo sapiens; EXVX; single dose 10 µM; negative = lethal; read-out: Percent growth inhibition
Procedure: as §1

HOP-92 = experiment: as above; format: cell-based; details: Homo sapiens, single dose 10 µM, negative = lethal, read-out: Percent growth inhibition
Procedure: as §1

HOP-62 = experiment: as above; format: cell-based; details: Homo sapiens, single dose 10 µM, negative = lethal, read-out: Percent growth inhibition
Procedure: as §1

NCI-H460 = experiment: as above; format: cell-based; details: Homo sapiens, single dose 10 µM, negative = lethal, read-out: Percent growth inhibition
Procedure: as §1

Brc1cn2ccnc2c(-c2ccc3c(c2)ncn3C2CCCCC2)n1 [Compound 8, 6-bromo-8-(1-cyclohexyl-1H-benzo[d]imidazol-5-yl)imidazo[1,2-a]pyrazine]
inhibition at 10 µM (MDA-MB-231/ATCC): 3.12%
inhibition at 10 µM (BT-549): 6.38%
inhibition at 10 µM (MDA-MB-468): 6.27%
inhibition at 10 µM (UACC-257): < 1%
inhibition at 10 µM (SK-MEL-5): 8.35%
inhibition at 10 µM (SK-MEL-2): 0.53%
inhibition at 10 µM (MDA-MB-435): < 1%
inhibition at 10 µM (MALME-3M): < 1%
inhibition at 10 µM (SK-MEL-28): < 1%
inhibition at 10 µM (SR): 20.6%
inhibition at 10 µM (HL-60(TB)): 10.5%
inhibition at 10 µM (MOLT-4): 17.4%
inhibition at 10 µM (RPMI-8226): < 1%
inhibition at 10 µM (K-562): 17.4%
inhibition at 10 µM (CCRF-CEM): < 1%
inhibition at 10 µM (PC-3): 10.3%
inhibition at 10 µM (DU-145): < 1%
inhibition at 10 µM (HCT-15): 4.25%
inhibition at 10 µM (HT29): 4.48%
inhibition at 10 µM (COLO 205): < 1%
inhibition at 10 µM (HCT-116): 6.06%
inhibition at 10 µM (SW-620): < 1%
inhibition at 10 µM (KM12): < 1%
inhibition at 10 µM (HCC-2998): 3.13%
inhibition at 10 µM (A549/ATCC): 4.8%
inhibition at 10 µM (EXVX): 10.3%
inhibition at 10 µM (HOP-92): 21.9%
inhibition at 10 µM (HOP-62): 13%
inhibition at 10 µM (NCI-H460): 3.26%
